Drawing on US20130072519A1, “2-PHENYL BENZOYLAMIDES” (priority 2010, published 2013), this text covers IC50 for 33 compounds.

The subject of this assay is Apolipoprotein B Secretion from HepG2 Cells. Kind of assay: Inhibition of Apolipoprotein B secretion from HepG2 cells (ELISA). The settings on record: 22-24 hours incubation, ApoB ELISA, Low/High IC50 columns give the 95% confidence interval. The class given is cell-based, human. On the procedure:
Inhibition of Apolipoprotein B Secretion from HepG2 Cells
To assess the inhibitory effect of the compounds of the invention on ApoB production, an endogenously ApoB producing cell line, HEPG2, was implemented in an in vitro ELISA assay. HEPG2 cells are plated at 25,000 per well (96-well plates) in media consisting of DMEM Low Glucose, 1% NEAA (non-essential amino acids), 10% FBS (heat inactivated), 1% L-Glutamine, and 1% Antimycotic-Antibiotic and incubated for 16-18 hours at 37° C. and 5% CO2. After the 16-18 hour incubation, a 12 point half-log serial of the inhibitor (1000 nM-0.003 nM) is prepared, and 1.5 ul of the serial dilution is added to HEPG2 cells, which have had their media decanted and replaced with 148 ul of fresh media, and the cells are incubated for 22-24 hours at 37° C. and 5% CO2. Two and a half hours before the 22-24 hour incubation period is completed, Nunc Maxisorp plates are coated with 100 ul of primary (coating) antibody (goat anti-apoB), diluting to a ratio of 1:1000 in 1% Carbonate-Bicarbonate Coating Buffer and incubated for at least 2 hours at room temperature before the primary antibody is decanted and the wells of the microplate are washed with 200 ul of washing buffer (1% PBS, 0.05% Tween20). Next, 200 ul of blocking buffer (1% PBS, 1:500 Western Block, 5 mg/ml BSA) is added to the wells of the microplate, and incubated for at least 30 mins. Following the 22-24 hours incubation period, cell plates are removed from the incubator, 20 ul of supernatant from each well is aspirated, added to a corresponding well in 96 well plate containing 140 ul of diluent (1:2-Blocking Buffer: Washing Buffer), and mixed. Then, 120 ul is aspirated from the dilutent-supernatant plate, added to the blocked Nunc Maxisorp 96 well plate, and placed at room temperature on a shaker to mix for at least 2 hours. The secondary (capture) antibody (mouse anti-human apoB) is prepared at a ratio of 1:4000, and the detection antibody (goat anti-mouse HRP conjugated antibody) at a ratio of 1:10,000. For each antibody, 100 ul is added to each well of the microplate and the microplate is incubated at room temperature for 2 hours, washing the microplates between each antibody addition. Colorimetric development is achieved by adding 50 ul of TMB reagent to each well, incubating for 5 mins at room temperature, then adding 50 ul of 2M Sulfuric Acid to each well. Absorbance at 450 nm is monitored in an Envision plate reader to measure the amount of ApoB formed.
Results reported as average IC50, low and high IC50 range (95% confidence interval).
For orientation: An ELISA detects its analyte on a solid surface through an enzyme-linked reagent.

Setting [1] is: Homo sapiens, HepG2, HepG2 cells.

Turning to `CCOC(=O)C1(COC(=O)Cc2ccc(NC(=O)c3ccccc3-c3ccc(C(F)(F)F)cc3)c(C(=O)N(C)C)c2)c2ccccc2C(=O)N1C` (racemic) [Example 4], under setting [1], the midpoint of inhibition, the IC50, lay at 0.846 nM. This counts as sub-nanomolar.

Take `Cc1cccc(C(=O)Nc2ccc(CC(=O)OCC3(C(=O)OCc4ccccc4)c4ccccc4C(=O)N3C)cc2C(=O)N(C)C)c1-c1ccc(C(F)(F)F)cc1` (racemic) [Example 8]: the IC50 – broadly, the concentration at which inhibition is half-maximal – under setting [1] came out at 0.436 nM. This IC50 lies about 1.9-fold lower than the previous one.

`CCOC(=O)C1(COC(=O)Cc2ccc(NC(=O)c3ccccc3-c3ccc(C(F)(F)F)cc3)c(C(=O)N(C)C)c2)c2ccccc2C(=O)N1C(C)C` (racemic) [Example 14] yielded a 50% inhibitory concentration (IC50) under setting [1] of 2.16 nM.

Consider `CCOC(=O)C1(COC(=O)Cc2ccc(NC(=O)c3ccccc3-c3ccc(C(F)(F)F)cc3)c(C(=O)N(C)C)c2)c2ccccc2C(=O)N1CC` (racemic) [Example 15], for which, under setting [1], the IC50 is 1.45 nM.

On to `CCOC(=O)C1(COC(=O)Cc2ccc(NC(=O)c3ccccc3-c3ccc(C(F)(F)F)cc3)c(C(=O)N(C)C)c2)c2ccccc2C(=O)N1CC(F)(F)F` (racemic) [Example 16], for which the IC50 under setting [1] is 2.73 nM.

`CCOC(=O)C1(COC(=O)Cc2ccc(NC(=O)c3ccccc3-c3ccc(C(F)(F)F)cc3)c(C(=O)N(C)C)c2)NC(=O)c2ccccc21` (racemic) [Example 21] yielded an IC50 under setting [1] of 16.5 nM.

On to `CCOC(=O)C1(COC(=O)Cc2ccc(NC(=O)c3ccccc3-c3ccc(C(F)(F)F)cc3)c(C(=O)N(C)C)c2)c2ccccc2C(=O)N1Cc1ccc(OC)cc1OC` (racemic) [Example 27], for which half-maximal inhibition under setting [1] (IC50) was put at 30.8 nM.

In the case of `COC(=O)C1(COC(=O)Cc2ccc(NC(=O)c3ccccc3-c3ccc(C(F)(F)F)cc3)c(C(=O)N(C)C)c2)CCc2ccccc21` (racemic) [Example 28], half-maximal inhibition under setting [1] (IC50) was put at 3.17 nM.

In the case of `CCOC(=O)C1(COC(=O)Cc2ccc(NC(=O)c3ccccc3-c3ccc(C(F)(F)F)cc3)c(C(=O)N(C)C)c2)CCc2ccccc21` (racemic) [Example 29], the IC50 under setting [1] was found to be 2.04 nM.

`CCOC(=O)C1(COC(=O)Cc2ccc(NC(=O)c3ccccc3-c3ccc(C(F)(F)F)cc3)c(C(=O)N(C)C)c2)OC(=O)c2ccccc21` (racemic) [Example 30] registered an IC50 under setting [1] of 6.5 nM.

Turning to `CCOC(=O)C1(COC(=O)Cc2ccc(NC(=O)c3ccccc3-c3ccc(C(F)(F)F)cc3)c(C(=O)N(C)C)c2)CCc2cccnc21` (racemic) [Example 37], inhibition under setting [1] was half-maximal at 8.47 nM (IC50).

In turn, `CCOC(=O)C1(COC(=O)Cc2ccc(NC(=O)c3ccccc3-c3ccc(C(F)(F)F)cc3)c(C(=O)N(C)C)c2)CCCc2ccccc21` (racemic) [Example 41] came in with a concentration for half-maximal inhibition (IC50) under setting [1] of 0.701 nM.

Take `CCOC(=O)C1(COC(=O)Cc2ccc(NC(=O)c3ccccc3-c3ccc(C(F)(F)F)cc3)c(C(=O)N(C)C)c2)CCCc2cccnc21` (racemic) [Example 42]: under setting [1], the 50% inhibitory concentration (IC50) was found to be 0.529 nM.

Under setting [1], `CCOC(=O)C1(COC(=O)Cc2ccc(NC(=O)c3cccc(C)c3-c3ccc(C(F)(F)F)cc3)c(C(=O)N(C)C)c2)c2ncccc2C(=O)N1CC` (racemic) [Example 44] came in with a half-inhibitory concentration (IC50) of 0.328 nM.

The compound `CCN1C(=O)c2ccccc2C1(COC(=O)Cc1ccc(NC(=O)c2cccc(C)c2-c2ccc(C(F)(F)F)cc2)c(C(=O)N(C)C)c1)C(=O)OC` (racemic) [Example 65, methyl 1-({2-[3-(dimethylcarbamoyl)-4-({[6-methyl-4′-(trifluoromethyl)biphenyl-2-yl]carbonyl}amino)phenyl]acetoxy}methyl)-2-ethyl-3-oxoisoindoline-1-carboxylate] returned a half-maximal inhibitory concentration (IC50) under setting [1] of 0.38 nM.

Turning to `Cc1cccc(C(=O)Nc2ccc(CC(=O)OCC3(C(=O)OCc4ccccc4)c4ccccc4C(=O)N3C)cc2C(=O)N(C)C)c1-c1ccc(C(F)(F)F)cc1` (single isomer, unassigned; (+)) [Example 10, (+)-Benzyl 1-({2-[3-(Dimethylcarbamoyl)-4-({[6-methyl-4′-(trifluoromethyl)biphenyl-2-yl]carbonyl}amino)phenyl]acetoxy}methyl)-2-methyl-3-oxoisoindoline-1-carboxylate], where the note is “HepG2 cells”, the IC50 came out at 14.1 nM.

The compound `CCOC(=O)C1(COC(=O)Cc2ccc(NC(=O)c3ccccc3-c3ccc(C(F)(F)F)cc3)c(C(=O)N(C)C)c2)CCCc2ccccc21` (single isomer, unassigned; (+)) [Example 46, (+)-Ethyl 1-({2-[3-(Dimethylcarbamoyl)-4-({[4′-(trifluoromethyl)biphenyl-2-yl]carbonyl}amino)phenyl]acetoxy}methyl)-1,2,3,4-tetrahydronaphthalene-1-carboxylate] displayed a half-inhibitory concentration (IC50) (HepG2 cells) of 1.66 nM.

Consider `Cc1cccc(C(=O)Nc2ccc(CC(=O)OCC3(C(=O)OCc4ccccc4)c4ccccc4C(=O)N3C)cc2C(=O)N(C)C)c1-c1ccc(C(F)(F)F)cc1` (single isomer, unassigned; (-)) [Example 9, (−)-Benzyl 1-({2-[3-(Dimethylcarbamoyl)-4-({[6-methyl-4′-(trifluoromethyl)biphenyl-2-yl]carbonyl}amino)phenyl]acetoxy}methyl)-2-methyl-3-oxoisoindoline-1-carboxylate], for which, for the setting “HepG2 cells”, the IC50 was found to be 0.2 nM.

`CCOC(=O)C1(COC(=O)Cc2ccc(NC(=O)c3ccccc3-c3ccc(C(F)(F)F)cc3)c(C(=O)N(C)C)c2)CCCc2ccccc21` (single isomer, unassigned; (-)) [Example 45, (−)-Ethyl 1-({2-[3-(Dimethylcarbamoyl)-4-({[4′-(trifluoromethyl)biphenyl-2-yl]carbonyl}amino)phenyl]acetoxy}methyl)-1,2,3,4-tetrahydronaphthalene-1-carboxylate] yielded an IC50 under setting [1] of 1.63 nM.

On to `CCOC(=O)[C@]1(COC(=O)Cc2ccc(NC(=O)c3ccccc3-c3ccc(C(F)(F)F)cc3)c(C(=O)N(C)C)c2)c2ccccc2C(=O)N1C` [Example 1, Ethyl 1R-({2-[3-(dimethylcarbamoyl)-4-({[4′-(trifluoromethyl)biphenyl-2-yl]carbonyl}amino)phenyl]acetoxy}methyl)-2-methyl-3-oxoisoindoline-1-carboxylate], for which the concentration for half-maximal inhibition (IC50) under setting [1] worked out at 0.495 nM.

In turn, `CCOC(=O)C1(COC(=O)Cc2ccc(NC(=O)c3cccc(C)c3-c3ccc(C(C)(C)C)cc3)c(C(=O)N(C)C)c2)OC(=O)c2ccccc21` (stereo not drawn) [Example 2] returned an IC50 under setting [1] of 519 nM.

The compound `CCOC(=O)C1(COC(=O)Cc2ccc(NC(=O)c3ccc(C(F)(F)F)cc3-c3ccc(C(F)(F)F)cc3)c(C(=O)N(C)C)c2)OC(=O)c2ccccc21` (stereo not drawn) [Example 3] yielded an IC50 under setting [1] of 15.7 nM.

As to `CCOC(=O)C1(COC(=O)Cc2ccc(NC(=O)c3ccccc3-c3ccc(C(F)(F)F)cc3)c(Cl)c2)c2ccccc2C(=O)N1C` (stereo not drawn) [Example 6], 4.77 nM corresponded to half-maximal inhibition under setting [1] (IC50).

Under setting [1], `CCOC(=O)C1(COC(=O)Cc2ccc(NC(=O)c3cccc(C)c3-c3ccc(C(F)(F)F)cc3)c(C(=O)N(C)C)c2)c2ccccc2C(=O)N1C` (stereo not drawn) [Example 7] registered a half-inhibitory concentration (IC50) of 15.6 nM.

`CCOC(=O)C1(COC(=O)Cc2ccc(NC(=O)c3cccc(C)c3-c3ccc(C(F)(F)F)cc3)c(C(=O)N(C)C)c2)NC(=O)c2ccccc21` (stereo not drawn) [Example 11] registered an IC50 (HepG2 cells) of 29.4 nM.

The compound `CCOC(=O)C1(COC(=O)Cc2ccc(NC(=O)c3cccc(C)c3-c3ccc(C(F)(F)F)cc3)c(C(=O)N(C)C)c2)NC(=O)c2ccccc21` (stereo not drawn) [Example 12] came in with an IC50 (HepG2 cells) of 156 nM.

With `CCOC(=O)C1(COC(=O)Cc2ccc(NC(=O)c3ccccc3-c3ccc(C(F)(F)F)cc3)c(C(=O)N(C)C)c2)c2ccccc2C(=O)N1C` (stereo not drawn) [Example 13], the concentration for half-maximal inhibition (IC50) under setting [1] amounted to 7.18 nM.

`CCOC(=O)C1(COC(=O)Cc2ccc(NC(=O)c3ccccc3-c3ccc(C(F)(F)F)cc3)c(C)c2)c2ccccc2C(=O)N1C` (stereo not drawn) [Example 17] returned an IC50 under setting [1] of 3.07 nM.

Compound `CCOC(=O)C1(COC(=O)Cc2ccc(NC(=O)c3ccccc3-c3ccc(C(F)(F)F)cc3)cc2)c2ccccc2C(=O)N1C` (stereo not drawn) [Example 18] returned a concentration for half-maximal inhibition (IC50) under setting [1] of 23.9 nM.

For the compound `CCOC(=O)C1(COC(=O)Cc2ccc(NC(=O)c3ccccc3-c3ccc(C(F)(F)F)cc3)c(C(=O)N(C)C)c2)c2ccccc2C(=O)N1CC` (stereo not drawn) [Example 19], half-maximal inhibition (HepG2 cells) (IC50) was put at 0.107 nM.

`CCOC(=O)C1(COC(=O)Cc2ccc(NC(=O)c3ccccc3-c3ccc(C(F)(F)F)cc3)c(C(=O)N(C)C)c2)c2ccccc2C(=O)N1CC` (stereo not drawn) [Example 20] yielded an IC50 (HepG2 cells) of 1.76 nM.

Turning to `CN(C)C(=O)c1cc(CC(=O)OCC2(C(=O)OCc3ccccc3)c3ccccc3C(=O)N2C)ccc1NC(=O)c1ccccc1-c1ccc(C(F)(F)F)cc1` (stereo not drawn) [Example 22], the half-inhibitory concentration (IC50) (HepG2 cells) was 83.5 nM.

For `CN(C)C(=O)c1cc(CC(=O)OCC2(C(=O)OCc3ccccc3)c3ccccc3C(=O)N2C)ccc1NC(=O)c1ccccc1-c1ccc(C(F)(F)F)cc1` (stereo not drawn) [Example 23], under “HepG2 cells”, half-maximal inhibition (IC50) required 0.333 nM.
